The target of assay [1] is T1, ovine COX-1 (Ovis aries, UniProt P05979).
T1 construct: purchased Cayman Chemicals (Ann Arbor, Mich.)
T1 sequence (P05979 25-600): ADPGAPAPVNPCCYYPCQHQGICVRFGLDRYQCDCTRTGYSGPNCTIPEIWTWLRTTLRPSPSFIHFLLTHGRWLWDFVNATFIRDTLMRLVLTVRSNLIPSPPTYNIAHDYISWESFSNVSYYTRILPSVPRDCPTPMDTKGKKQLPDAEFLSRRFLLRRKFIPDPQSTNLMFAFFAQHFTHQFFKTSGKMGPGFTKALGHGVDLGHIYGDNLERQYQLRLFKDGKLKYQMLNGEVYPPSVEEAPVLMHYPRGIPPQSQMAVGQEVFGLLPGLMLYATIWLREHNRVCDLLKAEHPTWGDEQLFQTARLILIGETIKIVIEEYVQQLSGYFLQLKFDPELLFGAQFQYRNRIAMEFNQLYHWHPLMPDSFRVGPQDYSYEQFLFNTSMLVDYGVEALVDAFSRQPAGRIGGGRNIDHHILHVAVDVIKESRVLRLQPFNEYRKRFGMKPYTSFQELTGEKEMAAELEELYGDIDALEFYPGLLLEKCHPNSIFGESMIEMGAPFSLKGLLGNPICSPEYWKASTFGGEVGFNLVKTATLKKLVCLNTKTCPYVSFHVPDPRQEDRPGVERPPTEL
Put plainly: COX-1 activity assay using purified enzyme. The class given is biochemical. The settings on record: purified enzyme, Not inhibit: 9′ at 20 μM, acetaminophen at 250 μM. The method, then: (§1) COX-1 and COX -2 activity assay using purified enzymes—The enzymatic reactions were performed in 0.1M Tris (pH 8.0), in the presence of 5 mM EDTA, 2 mM phenol, and 1 μM heme. […] Enzymatic reactions were initiated by addition of AA at a final concentration of 5 μM for 2 min. The reaction was stopped by addition of 0.1 M HCl. Stannous chloride in 0.1 M HCl was then added to reduce PGG2 and PGH2 to PGF2a. After addition of 0.5 vol of […] NaCl, prostaglandins formed in the reaction were extracted using 2.5 vol of ethyl acetate and the organic layer was completely dried under N2. PGF2a, and PGE2 were quantified using ELISA assays from Cayman Chemicals.

For assay [2], the target named is T2, COX-2 (Homo sapiens, UniProt P35354).
T2 sequence (P35354 18-604): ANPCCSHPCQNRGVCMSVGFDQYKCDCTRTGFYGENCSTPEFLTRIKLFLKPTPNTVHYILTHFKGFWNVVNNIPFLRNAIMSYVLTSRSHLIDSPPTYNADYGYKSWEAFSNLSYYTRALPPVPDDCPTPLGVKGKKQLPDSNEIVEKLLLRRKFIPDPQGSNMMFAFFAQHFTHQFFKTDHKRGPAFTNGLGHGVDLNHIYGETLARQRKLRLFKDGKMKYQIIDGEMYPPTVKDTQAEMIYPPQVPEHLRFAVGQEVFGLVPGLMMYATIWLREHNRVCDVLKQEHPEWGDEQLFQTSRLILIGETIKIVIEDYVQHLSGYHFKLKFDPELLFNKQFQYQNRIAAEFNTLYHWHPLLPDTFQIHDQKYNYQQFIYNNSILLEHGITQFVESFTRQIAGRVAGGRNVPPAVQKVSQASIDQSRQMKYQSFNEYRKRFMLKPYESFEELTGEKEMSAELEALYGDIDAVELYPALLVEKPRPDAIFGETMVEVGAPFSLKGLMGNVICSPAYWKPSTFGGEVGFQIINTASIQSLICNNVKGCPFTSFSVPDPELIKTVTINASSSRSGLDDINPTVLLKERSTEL
As to the kind of experiment: COX-2 activity assay using purified enzyme. It counts as biochemical. Set-up: purchased Cayman Chemicals (Ann Arbor, Mich.); IC50 in the enzyme assay: unit not given beside the values. The settings on record: for IC50: purified enzyme, Not inhibit: 9′ at 20 μM, acetaminophen at 250 μM. Here is the method: as §1

The target in assay [3] is T2, COX-2. Also noted: A549 cells were pre-treated with 0.5-1 ng/mL of IL-1β- for 6 hours to induce COX-2 expression; endogenous in cells. The settings on record: previously reported; read-out: IC50 COX-2 in A549 cells; cited from earlier work.

Molecules are shown by their SMILES. Read-outs that look alike come from different tables or passages of the source.

As usually defined, the IC50 is the point on the concentration scale where inhibition reaches its midpoint.

In the case of `Cc1c(O)cc2c(c1C)OC(C)(CCC(=O)O)CC2` (stereo not drawn) [γ-CEHC, reference compound], the IC50 was 300 ± 50 µM in assay [1]; 300 to 500 µM in assay [1] (listed as F-CEHC); 450 ± 50 µM in assay [2]; 300 to 500 µM in assay [2] (listed as F-CEHC); 30 to 70 µM in assay [3]. The “IC50 in the enzyme assay” value in assay [2] (assays using purified COX-1 or COX-2) is given as > 3000/1.
